Data on 23 compounds can be found in patent publication US10471046B2, “Method for treating, preventing, or reducing the risk of skin infection” (Melinta Subsidiary Corp., priority 2014, dated 2019).

Structures are written as SMILES. Converted amounts (≈) assume the structure as drawn.

The test system of the experiment is S. aureus. The experiment is described as follows: Minimum inhibitory concentrations (MICs) for S. aureus of exemplary compounds (Table 2). The experiment is classed as cell-based. Particulars: Staphylococcus aureus, minimum inhibitory concentrations for S. aureus; read-out: MICs. Put shortly:
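MICs (μg/mL) against S. aureus come from microtiter-tray dilution susceptibility testing per NCCLS M7-A5, comparing growth with and without compound.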
`CC(=O)NC[C@H]1CN(c2ccc(-c3ccc(Cn4cnnn4)cc3)c(F)c2)C(=O)O1` [Compound 1047, N-[3-(2-Fluoro-4′-tetrazol-1-ylmethyl-biphenyl-4-yl)-2-oxo-oxazolidin-5-(S)-ylmethyl]-acetamide]: the MIC amounted to 0.25 µg/mL (≈ 0.609 µM). Regarding `CC(=O)NC[C@H]1CN(c2cc(F)c(-c3ccc(Cn4cnnn4)cc3)c(F)c2)C(=O)O1` [Compound 1048, N-[3-(2,6-Difluoro-4′-tetrazol-1-ylmethyl-biphenyl-4-yl)-2-oxo-oxazolidin-5-(S)-ylmethyl]-acetamide], the MIC stood at 1 µg/mL (≈ 2.33 µM). To `CCOC(=O)c1cnn(Cc2ccc(-c3ccc(N4C[C@H](CNC(C)=O)OC4=O)cc3F)cc2)c1` [Compound 1049, 1-{4′-[5-(S)-(Acetylamino-methyl)-2-oxo-oxazolidin-3-yl]-2′-fluoro-biphenyl-4-ylmethyl}-1H-pyrazole-4-carboxylic acid ethyl ester] belongs 0.5 µg/mL (≈ 1.04 µM); to `CC(=O)NC[C@H]1CN(c2ccc(-c3ccc(Cn4cnc(CO)c4)cc3)c(F)c2)C(=O)O1` [Compound 1050, N-{3-[2-Fluoro-4′-(4-hydroxymethyl-imidazol-1-ylmethyl)-biphenyl-4-yl]-2-oxo-oxazolidin-5-(S)-ylmethyl}-acetamide], 2 µg/mL (≈ 4.56 µM). To `CC(=O)NC[C@H]1CN(c2ccc(-c3ccc(Cn4cc(C(=O)O)cn4)cc3)c(F)c2)C(=O)O1` [Compound 1051, 1-{4′-[5-(S)-(Acetylamino-methyl)-2-oxo-oxazolidin-3-yl]-2′-fluoro-biphenyl-4-ylmethyl}-1H-pyrazole-4-carboxylic acid] belongs 1 µg/mL (≈ 2.21 µM); to `CC(=O)NC[C@H]1CN(c2ccc(-c3ccc(Cn4cc(C)cn4)cc3)c(F)c2)C(=O)O1` [Compound 1052, N-{3-[2-Fluoro-4′-(4-methyl-pyrazol-1-ylmethyl)-biphenyl-4-yl]-2-oxo-oxazolidin-5-(S)-ylmethyl}-acetamide], 1 µg/mL (≈ 2.37 µM); to `CC(=O)NC[C@H]1CN(c2ccc(-c3ccc(Cn4ccc(N)n4)cc3)c(F)c2)C(=O)O1` [Compound 1053, N-{3-[4′-(3-Amino-pyrazol-1-ylmethyl)-2-fluoro-biphenyl-4-yl]-2-oxo-oxazolidin-5-(S)-ylmethyl}-acetamide], 1 µg/mL (≈ 2.36 µM). The figure for `CC(=O)NC[C@H]1CN(c2ccc(-c3ccc(Cn4cccc4)cc3)c(F)c2)C(=O)O1` [Compound 1054, N-[3-(2-Fluoro-4′-pyrrol-1-ylmethyl-biphenyl-4-yl)-2-oxo-oxazolidin-5-(S)-ylmethyl]-acetamide] is 0.5 µg/mL (≈ 1.23 µM); for `CC(=O)NC[C@H]1CN(c2ccc(-c3ccc(Cn4ccc(C=O)c4)cc3)c(F)c2)C(=O)O1` [Compound 1055, N-{3-[2-Fluoro-4′-(3-formyl-pyrrol-1-ylmethyl)-biphenyl-4-yl]-2-oxo-oxazolidin-5-(S)-ylmethyl}-acetamide] it is 0.25 µg/mL (≈ 0.574 µM).

On to `CC(=O)NC[C@H]1CN(c2ccc(-c3ccc(Cn4ncnn4)cc3)c(F)c2)C(=O)O1` [Compound 1056, N-[3-(2-Fluoro-4′-tetrazol-2-ylmethyl-biphenyl-4-yl)-2-oxo-oxazolidin-5-(S)-ylmethyl]-acetamide], for which the MIC was found to be 0.25 µg/mL (≈ 0.609 µM). For `CC(=O)NC[C@H]1CN(c2ccc(-c3ccc(Cn4nnnc4C)cc3)c(F)c2)C(=O)O1` [Compound 1058, N-{3-[2-Fluoro-4′-(5-methyl-tetrazol-1-ylmethyl)-biphenyl-4-yl]-2-oxo-oxazolidin-5-(S)-ylmethyl}-acetamide], the MIC stood at 0.5 µg/mL (≈ 1.18 µM).

As to `CC(=O)NC[C@H]1CN(c2ccc(-c3ccc(Cn4nnc(C)n4)cc3)c(F)c2)C(=O)O1` [Compound 1059, N-{3-[2-Fluoro-4′-(5-methyl-tetrazol-2-ylmethyl)-biphenyl-4-yl]-2-oxo-oxazolidin-5-(S)-ylmethyl}-acetamide], the MIC came to 0.5 µg/mL (≈ 1.18 µM).

Regarding `CC(=O)NC[C@H]1CN(c2ccc(-c3ccc([C@H](O)Cn4ccnn4)cc3)c(F)c2)C(=O)O1` [Compound 1061, N-{3-[2-Fluoro-4′-(1-(S)-hydroxy-2-[1,2,3]triazol-1-yl-ethyl)-biphenyl-4-yl]-2-oxo-oxazolidin-5-(S)-ylmethyl}-acetamide], the MIC was found to be 1 µg/mL (≈ 2.28 µM). For the compound `CC(=O)NC[C@H]1CN(c2ccc(-c3ccc([C@H](O)CN4CCC4)cc3)c(F)c2)C(=O)O1` [Compound 1062, N-{3-[4′-(2-Azetidin-1-yl-1-(S)-hydroxy-ethyl)-2-fluoro-biphenyl-4-yl]-2-oxo-oxazolidin-5-(S)-ylmethyl}-acetamide], the MIC was 8 µg/mL (≈ 18.7 µM).

With `CC(=O)NC[C@H]1CN(c2ccc(-c3ccc([C@H](CO)N4CCC4)cc3)c(F)c2)C(=O)O1` [Compound 1063, N-{3-[4′-(1-(R)-Azetidin-1-yl-2-hydroxy-ethyl)-2-fluoro-biphenyl-4-yl]-2-oxo-oxazolidin-5-(S)-ylmethyl}-acetamide], the MIC came to 8 µg/mL (≈ 18.7 µM). The figure for `CC(=O)NC[C@H]1CN(c2ccc(-c3ccc(CN4CCSCC4)cc3)c(F)c2)C(=O)O1` [Compound 1064, N-[3-(2-Fluoro-4′-thiomorpholin-4-ylmethyl-biphenyl-4-yl)-2-oxo-oxazolidin-5-(S)-ylmethyl]-acetamide] is 2 µg/mL (≈ 4.51 µM). For the compound `CC(=O)NC[C@H]1CN(c2ccc(-c3ccc(CN4CC[S+]([O-])CC4)cc3)c(F)c2)C(=O)O1` [Compound 1065, N-{3-[2-Fluoro-4′-(1-oxo-1 lambda*4*-thiomorpholin-4-ylmethyl)-biphenyl-4-yl]-2-oxo-oxazolidin-5-(S)-ylmethyl}-acetamide], the MIC worked out at 2 µg/mL (≈ 4.35 µM).

Regarding `CC(=O)NC[C@H]1CN(c2ccc(-c3ccc(Cn4ccnc4C)cc3)c(F)c2)C(=O)O1` [Compound 1066, N-{3-[2-Fluoro-4′-(2-methyl-imidazol-1-ylmethyl)-biphenyl-4-yl]-2-oxo-oxazolidin-5-(S)-ylmethyl}-acetamide], the MIC was found to be 1 µg/mL (≈ 2.37 µM). To `CC(=O)NC[C@H]1CN(c2ccc(-c3ccc(Cn4cncc4C)cc3)c(F)c2)C(=O)O1` [Compound 1067, N-{3-[2-Fluoro-4′-(5-methyl-imidazol-1-ylmethyl)-biphenyl-4-yl]-2-oxo-oxazolidin-5-(S)-ylmethyl}-acetamide] belongs 1 µg/mL (≈ 2.37 µM); to `CC(=O)NC[C@H]1CN(c2ccc(-c3ccc(Cn4cc(C)nc4C)cc3)c(F)c2)C(=O)O1` [Compound 1068, N-{3-[4′-(2,4-Dimethyl-imidazol-1-ylmethyl)-2-fluoro-biphenyl-4-yl]-2-oxo-oxazolidin-5-(S)-ylmethyl}-acetamide], 1 µg/mL (≈ 2.29 µM); to `CC(=O)NC[C@H]1CN(c2ccc(-c3ccc(Cn4cnc(N)n4)cc3)c(F)c2)C(=O)O1` [Compound 1069, N-{3-[4′-(3-Amino-[1,2,4]triazol-1-ylmethyl)-2-fluoro-biphenyl-4-yl]-2-oxo-oxazolidin-5-(S)-ylmethyl}-acetamide], 1 µg/mL (≈ 2.36 µM).

For `CC(=O)NC[C@H]1CN(c2ccc(-c3ccc(Cn4cccc4)nc3)c(F)c2)C(=O)O1` [Compound 1071, N-{3-[3-Fluoro-4-(6-pyrrol-1-ylmethyl-pyridin-3-yl)-phenyl]-2-oxo-oxazolidin-5-(S)-ylmethyl}-acetamide], the MIC amounted to 0.25 µg/mL (≈ 0.612 µM). The figure for `CC(=O)NC[C@H]1CN(c2ccc(-c3ccc(Cn4cncn4)nc3)c(F)c2)C(=O)O1` [Compound 1072, N-{3-[3-Fluoro-4-(6-[1,2,4]triazol-1-ylmethyl-pyridin-3-yl)-phenyl]-2-oxo-oxazolidin-5-(S)-ylmethyl}-acetamide] is 1 µg/mL (≈ 2.44 µM).
